Measurements taken from ChEMBL document CHEMBL1201862, “PubChem BioAssay data set” (2004).
The source made the active and inactive calls.

Experiments:
[1] = biological target: G-protein coupled receptor 55 (Homo sapiens, UniProt Q9Y2T6); assay: selective activators of receptor GPR55 – imaging, U2OS cells, beta-arrestin-GFP redistribution, primary screen (AID 1961); format: functional
[2] = biological target: Induced myeloid leukemia cell differentiation protein Mcl-1 (Homo sapiens, UniProt Q07820); format: functional
[3] = NIH3T3 cell viability loss – ATP luminescence, mouse fibroblasts, counter-screen, dose response (AID 2010); format: functional, cell-based;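 also: cells exposed to compound for about 90 hours before reading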
[4] = Trypanosoma cruzi growth suppression in host cells – NIH3T3 host cells, beta-gal luminescence, confirmation (AID 2044); format: functional, cell-based;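 also: intracellular parasites grown in NIH/3T3 mouse fibroblasts as host cells; luminescent beta-galactosidase reporter signal from transgenic T. cruzi replicating inside host cells; inhibitors lower the luminescence signal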
Cytochrome P450 1A2 = biological target: T1, Cytochrome P450 1A2 (Homo sapiens, UniProt P05177);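 also: PubChem cytochrome P450 panel assay, CYP1A2 panel member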
T1 sequence (P05177 whole entry): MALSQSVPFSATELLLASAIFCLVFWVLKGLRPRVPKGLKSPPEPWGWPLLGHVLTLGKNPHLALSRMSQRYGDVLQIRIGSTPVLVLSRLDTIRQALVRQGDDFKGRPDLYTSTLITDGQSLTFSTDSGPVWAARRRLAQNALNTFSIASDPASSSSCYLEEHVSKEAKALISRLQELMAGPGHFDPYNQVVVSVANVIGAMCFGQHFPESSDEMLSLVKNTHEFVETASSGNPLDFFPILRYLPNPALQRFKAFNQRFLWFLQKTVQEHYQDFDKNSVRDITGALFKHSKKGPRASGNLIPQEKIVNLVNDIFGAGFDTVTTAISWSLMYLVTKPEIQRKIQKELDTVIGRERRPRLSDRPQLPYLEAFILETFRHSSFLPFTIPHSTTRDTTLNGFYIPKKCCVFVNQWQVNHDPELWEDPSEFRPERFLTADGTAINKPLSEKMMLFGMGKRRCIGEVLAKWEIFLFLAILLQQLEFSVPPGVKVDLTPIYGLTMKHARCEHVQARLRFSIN

Bcl-2-like protein 10 = biological target: T2, Bcl-2-like protein 10 (Homo sapiens, UniProt Q9HD36); assay: Bcl-B/TR3 peptide binding disruption – biochemical, fluorescence polarization, FITC-TR3 peptide, selectivity assay for Bfl-1 inhibitor project, primary screen (AID 748);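 also: fluorescence polarization from a fluorescein-labelled TR3 peptide binding purified Bcl-B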
T2 sequence (Q9HD36 whole entry): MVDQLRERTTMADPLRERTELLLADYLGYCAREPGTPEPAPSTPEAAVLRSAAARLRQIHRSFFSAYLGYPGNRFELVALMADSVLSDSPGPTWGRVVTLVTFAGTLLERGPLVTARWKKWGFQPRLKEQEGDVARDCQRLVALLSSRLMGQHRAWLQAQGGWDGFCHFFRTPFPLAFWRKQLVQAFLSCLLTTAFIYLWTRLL

[5] = biological target: Neurotensin receptor type 1 (Homo sapiens, UniProt P30989); format: functional;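 also: Image-based confirmatory dose-response assay measuring agonist activity at NTR1; NTR1-expressing U2OS osteosarcoma cells imaged for beta-arrestin GFP spot formation; agonist potency where compounds increase beta-arrestin recruitment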
cells [6] = format: functional
[7] = THP-1 cell cytotoxicity, dose response, cytotoxicity control for non-replicating M. tuberculosis project (AID 489025); format: functional
[8] = Vero E6 cell cytotoxicity, dose response, cytotoxicity control for non-replicating M. tuberculosis project, secondary assay (AID 492998); format: functional, VeroE6; details: Vero C1008
[9] = microbe, parasite or virus in culture; format: functional; details: Mycobacterium tuberculosis
INS1 = assay: INS-1E survival protection against cytokine death – cell-based, luminescence, retest, dose response (AID 449756); format: functional; details: Rattus norvegicus;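 also: cell death triggered by IL-1 beta plus TNF-alpha plus IFN-gamma mixture; protective hits raise ATP signal compared with cytokine alone wells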
[10] = biological target: Heat shock protein HSP 90-alpha (Homo sapiens, UniProt P07900); format: functional, organism-based
[11] = A Cell Based Secondary Assay To Explore Cytotoxicity of Compounds that Sensitize Mycobacterium Tuberculosis to Beta-Lactam Antibiotics.; format: functional
[12] = biological target: T3, Polyadenylate-binding protein 1 (Homo sapiens, UniProt P11940); assay: MLLE domain peptide-binding blockers, IC50 – biochemical, fluorescence polarization, FITC-PAM2 peptide, dose response (AID 602259); format: functional; details: read-out: IC50_Mean
[13] = biological target: T3, Polyadenylate-binding protein 1; assay: MLLE binding blockers, Cy5 peptide tracer – biochemical, fluorescence polarization, Cy5-PAM2 peptide, secondary, miRNA deadenylation inhibitor project, dose response (AID 602260); format: functional; details: read-out: IC50_Mean
Cytochrome P450 3A4 = Cytochrome P450 3A4 (Homo sapiens, UniProt P08684); details: Potency;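 also: confirmatory qHTS run detecting inhibitors and substrates of CYP3A4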
[14] = viability of uninfected HEp-2 cells – cell-based, HTS, cytotoxicity control for RSV inhibitor project, dose response (AID 2410); format: functional; details: human respiratory syncytial virus
[15] = biological target: T4, Lysosomal acid glucosylceramidase (Homo sapiens, UniProt P04062); assay: Dose response cell-based high throughput screening assay to identify enhancers of beta-glucosidase activity. [Related pubchem assays: 784 ]; format: functional
T4 sequence (P04062 whole entry): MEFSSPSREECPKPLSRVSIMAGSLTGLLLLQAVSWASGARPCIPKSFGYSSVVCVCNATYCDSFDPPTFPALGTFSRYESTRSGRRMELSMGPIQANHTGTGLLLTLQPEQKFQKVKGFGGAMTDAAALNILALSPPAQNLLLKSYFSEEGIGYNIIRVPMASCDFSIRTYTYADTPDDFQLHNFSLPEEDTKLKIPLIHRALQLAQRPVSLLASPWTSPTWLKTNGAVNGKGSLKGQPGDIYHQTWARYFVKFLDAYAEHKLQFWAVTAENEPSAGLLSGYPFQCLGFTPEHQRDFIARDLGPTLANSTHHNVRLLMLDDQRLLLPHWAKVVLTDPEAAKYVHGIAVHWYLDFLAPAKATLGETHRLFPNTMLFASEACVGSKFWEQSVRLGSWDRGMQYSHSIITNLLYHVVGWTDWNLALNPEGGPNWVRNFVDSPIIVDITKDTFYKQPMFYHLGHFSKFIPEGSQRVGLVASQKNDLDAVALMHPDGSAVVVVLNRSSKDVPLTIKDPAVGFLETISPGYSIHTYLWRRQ

[16] = biological target: T5, Ubiquitin-conjugating enzyme E2 N (Homo sapiens, UniProt P61088); format: functional
T5 sequence (P61088 whole entry): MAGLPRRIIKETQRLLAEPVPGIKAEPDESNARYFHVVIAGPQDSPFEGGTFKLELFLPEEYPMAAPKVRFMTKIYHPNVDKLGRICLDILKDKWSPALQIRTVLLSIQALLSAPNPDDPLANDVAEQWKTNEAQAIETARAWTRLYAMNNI

Bcl-2-related protein A1 = biological target: T6, Bcl-2-related protein A1 (Mus musculus, UniProt Q07440); format: functional;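 also: confirmatory dose–response counterscreen on Bfl-1, used to check hits from a UBC13 polyubiquitin inhibitor campaign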
T6 sequence (Q07440 whole entry): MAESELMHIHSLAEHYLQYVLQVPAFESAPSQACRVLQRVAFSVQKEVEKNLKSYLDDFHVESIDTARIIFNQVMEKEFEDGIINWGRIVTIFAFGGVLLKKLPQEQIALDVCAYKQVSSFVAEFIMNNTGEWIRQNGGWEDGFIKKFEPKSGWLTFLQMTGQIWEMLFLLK

[17] = biological target: T5, Ubiquitin-conjugating enzyme E2 N; format: functional; remark: listed apart in the source
[18] = fluconazole-exposed Candida albicans growth modulators – fluorescence, retest, confirmation (AID 2467); format: functional, cell-based
HEK293 [19] = assay: inhibition of NOD1-driven NF-kB reporter – cell-based, luminescence, uHTS, primary screen (AID 1578); format: functional; details: Homo sapiens
HEK293 [20] = assay: NOD2 signaling inhibitors in MDP-stimulated cells, cell-based, uHTS, luminescence (AID 2001); format: functional; details: Homo sapiens
HEK293 [21] = assay: cells; format: functional, cell-based; details: Homo sapiens
[22] = tested on: Streptococcus sp. 'group A'; assay: Streptococcus pyogenes SK(-)GAS viability under kanamycin – luminescence, BacTiterGlo, confirmation, counter-screen for streptokinase expression inhibitor project, dose response (AID 1900); format: functional, organism-based
cells [23] = format: functional, cell-based
HEK293 [24] = assay: cells; format: functional, cell-based; details: Homo sapiens; remark: listed apart in the source
Streptococcus = assay: GAS UMAA2166 growth inhibition – luminescence, BacTiterGlo, counter-screen for streptokinase expression inhibitor project, dose response (AID 1915); format: functional, organism-based;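 also: potency for reduction of bacterial viability or growth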
cells [25] = format: functional, cell-based; remark: listed apart in the source
[26] = biological target: Nucleotide-binding oligomerization domain-containing protein 2 (Homo sapiens, UniProt Q9HC29); assay: inhibition of NOD2-driven NF-kB reporter – cell-based, luminescence, uHTS, HEK293 (AID 1566); format: functional
[27] = NIH-3T3 fibroblast cytotoxicity, dose response, cytotoxicity control, cell-based, fluorescence, Alamar Blue, secondary assay (AID 2327); format: functional;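 also: NIH-3T3 mouse fibroblasts cultured with fluconazole at 8 µg/mL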
Troponin, cardiac muscle = Troponin, cardiac muscle (Homo sapiens, UniProt P19429+P45379+P63316); assay: Fluorescence-based biochemical high throughput dose response assay for activators of the calcium sensitivity of cardiac Regulated Thin Filaments (RTF). [Related pubchem assays (depositor defined):AID493008, AID493018, AID504382, AID504383]; format: protein-complex assay
[28] = biological target: DNA dC->dU-editing enzyme APOBEC-3G (Homo sapiens, UniProt Q9HC16); assay: Dose Response confirmation of small molecule APOBEC3G DNA Deaminase Inhibitors via a fluorescence-based single-stranded DNA deaminase assay. [Related pubchem assays (depositor defined):AID493012, AID493028]; format: functional
[29] = Luminescence Cell-Based Dose Retest to Confirm Inhibitors of Cancer Stem Cells. [Related pubchem assays (depositor defined):AID2717, AID2721]; format: functional; details: Homo sapiens
[30] = biological target: Glyceraldehyde-3-phosphate dehydrogenase (Homo sapiens, UniProt P04406)

## CCOc1ccc(C2CC(c3c(O)oc4ccccc4c3=O)=NN2c2ccccc2)cc1OC (centres undefined)
[1]
  EC50: 8.61 µM (active)

## Cc1nc(NC(=O)c2ccco2)sc1-c1csc(Nc2ccc(Cl)cc2Cl)n1
[2]
  IC50: 1.56 µM (active)
[3]
  EC50: > 60 µM (not active)
[4]
  EC50: 0.537 µM (active)
Cytochrome P450 1A2
  AC50: 15.8 µM (inconclusive)
Bcl-2-like protein 10
  IC50: > 100 µM (inactive)

## Nc1ccccc1C#CC(=O)c1ccccc1
[5]
  EC50: 8.09 µM (active)
Cells [6]
  IC50: 4.2 µM (active)
[7]
  CC50: 23.5 µM (active)
[8]
  CC50: 17.4 µM (active)
[9]
  CC50: 16.9 µM (active)
INS1
  AC50: 7.81 µM (active)
[10]
  AC50: 5.42 µM (active)

## COc1cc(-c2nc(S(=O)(=O)c3ccc(C)cc3)c(N3CCOCC3)o2)cc(OC)c1OC
[11]
  CC50: > 40 µM (active)
[12]
  IC50: > 66 µM (inactive)
[13]
  IC50: > 66 µM (inactive)

## COc1ccc(N)c(OC)c1
Cytochrome P450 3A4
  AC50: 25.1 µM (inconclusive)

## CCOC(=O)c1nnc(-c2ccc(C)cc2)nc1Oc1ccc(Cl)cc1Cl
[14]
  CC50: 14.1 µM (active)
[1]
  EC50: 12.4 µM (inactive)

## C=CCn1c(S)nnc1-c1c[nH]c2ccccc12
[15]
  EC50: > 50 µM (not active)

## O=C(c1ccc(S(=O)(=O)N2CCCC2)cc1)N1CCC(CN2C(=O)c3cccc4cccc(c34)C2=O)CC1
[16]
  IC50: 8.21 µM (active)
Bcl-2-related protein A1
  IC50: > 20 µM (inactive)
[17]
  IC50: 6.28 µM (active)

## COc1cccc(/C=N/NC(=O)c2c(C)nc3ccc(Cl)cn23)c1O
[18]
  EC50: 1.36 µM (active)
HEK293 [19]
  EC50: > 20 µM (inactive)
HEK293 [20]
  IC50: > 20 µM (inactive)
HEK293 [21]
  IC50: > 20 µM (inactive)
[22]
  EC50: 3.25 µM (active)
Cells [23]
  EC50: 6.42 µM (active)
HEK293 [24]
  IC50: > 20 µM (inactive)
Streptococcus
  EC50: 7.14 µM (active)
Cells [25]
  EC50: > 350 µM (not active)
[26]
  EC50: > 20 µM (inactive)
[27]
  EC50: > 160 µM (inactive)
INS1
  AC50: 0.879 µM (active)

## CN1C[C@@H]2C(c3ccc(Cl)nc3)C3(c4ccc(C#N)cc4)CC2(C3)[C@H]1c1ccccc1 (some centres undefined)
Cytochrome P450 3A4
  AC50: 15.8 µM (inconclusive)

## CCOC(=O)c1c(C)cc(OC)cc1O [ETHYL EVERNINATE]
Cytochrome P450 3A4
  AC50: 31.6 µM (inconclusive)

## O=C(CSCc1ccc([N+](=O)[O-])cc1)N/N=C/c1ccncc1
[16]
  IC50: > 20 µM (inactive)
Bcl-2-related protein A1
  IC50: > 20 µM (inactive)
[17]
  IC50: 17.3 µM (active)

## O=C(O)c1ccccc1CSc1nnnn1-c1ccccc1
Troponin, cardiac muscle
  EC50: > 71.5 µM (inactive)

## Cc1[nH]c(=O)[nH]c(=S)c1C(=O)Nc1ccc(Cl)c(Cl)c1
[28]
  IC50: 9.67 µM (active)

## Cc1ccccc1OCC(=O)N(Cc1cccs1)C1CCS(=O)(=O)C1 (centres undefined)
[15]
  EC50: > 50 µM (not active)

## CC1CCN(CCCNC(=O)c2ccc3c(=O)n(Cc4ccc(Cl)cc4)c(=S)[nH]c3c2)CC1
[5]
  EC50: 17.9 µM (active)
[29]
  AC50: 6.37 µM (active)
[17]
  IC50: > 20 µM (inactive)

## C=CCOc1ccc(Br)cc1CNCC
Troponin, cardiac muscle
  EC50: > 71.5 µM (inactive)

## O=C(O)CSc1nc(-c2ccccc2)cs1
[30]
  IC50: > 100 µM (not active)

## Cc1cc(C)nc(Nc2ccc(N3CCCC3)cc2)n1
Bcl-2-like protein 10
  IC50: 61.9 µM (inactive)
